Experimental data as given in PMC12631002, “Bioactivity Profiles of Progressively Ring‐Fluorinated Cyclohexyl Motifs in the WKYMVm Peptide as Formylpeptide FPR2 Agonists and in Keto‐Piperazines as Antitrypanosome Agents” (Chembiochem, 2025).
Where two headings read alike, the source gives them in different places. Numbered stars: 1 amine (or outer) side, 2 acyl side, 3 side chain; on linkers, the order of the positions; unused ones are H or OH. Square brackets hold non-standard residues; d marks the D form. Ends that are not written are not given here. Peptide text beside a SMILES is read from it. X3 = O=C([C@H](C[C@@H]1[C@H](F)C[C@H](F)C[C@@H]1F)N[*:1])[*:2]; X2 = O=C([C@H](C[C@@H]1C[C@H](F)C[C@H](F)C1)N[*:1])[*:2]; X1 = O=C([C@H](C[C@H]1CC[C@@H](F)CC1)N[*:1])[*:2]; Phe(F5) = N[C@@H](Cc1c(F)c(F)c(F)c(F)c1F)C(=O)O; Phe(4-F) = N[C@@H](Cc1ccc(F)cc1)C(=O)O

Assays:
T. brucei [1] = test: Trypanocidal activity against growing cells; format: cell-based, Trypanosoma brucei; conditions: for EC50: Trypanosoma brucei; for trypanocidal activity against T. brucei: comparison within series and with 29
Text: (§1) Accordingly N‐Boc amino acid esters 20a–d were hydrolyzed to their free carboxylic acids 25a–d and then progressed in each case to the corresponding Weinreb–Nahm amides^[ [33] ^] 26a–d. N‐Boc deprotection followed by coupling to N‐Boc‐tryptophan generated dipeptides 27a–d as the required precursors for cyclization. The intramolecular Pictet–Spengler condensations, followed a previous protocol^[ [19] ^] and 4‐monofluoro 28a, 3,5‐difluoro‐ 28b, and 2,3,4,5,6‐pentafluoro‐ 28d keto‐piperazines could be prepared following this method. It is noteworthy that the pentafluoro‐ analog was accompanied by what appeared to be a high level of defluorinated side products, however 28d was conveniently purified by HPLC rather than column chromatography. […] Thus, 4‐monofluoro‐ 28a, 3,5‐difluoro‐ 28b, and 2,3,4,5,6‐pentafluoro‐ 28d cyclohexyl‐amino acid tryptophan diketopiperazines were prepared and explored in antitrypanosomal assays. Given the importance of molecular lipophilicity in the context of medicinal chemistry, a Log P assessment (HPLC) was made of the diketopiperazines products 28a, 28b, and 28d as illustrated in Table 1 . As anticipated, there is an increase in polarity (LogP reduction) as the number of fluorines increases. We also know from previous work[[6b]] that the Ph ring is more polar than cyclohexane but less polar than the progressively fluorinated cyclohexane rings. The keto‐piperazines 28a, 28b, and 28d were assayed^[ [20] ^] against growing cells of T. brucei and T. cruzi, as well as the human cell line, HeLa and the data is presented in Table 1.
Bioactivities assays of Janus face Tryptophan
Parasites were grown in different medium (e.g. T. brucei was grown in HMI-11 medium) with 10% heat-inactivated foetal bovine serum. parasites were counted using CASY TT Cell Counter. Fluorescence was recorded using a FLx 800 plate reader (BioTek) with an excitation wavelength 530–535 nm and emission wavelength of 590–610 nm using Gen5 Reader Control 2.0 Software (BioTek). EC50 values were determined using a 4-parameter non-linear logistic regression equation using GraFit 5.0 (Erithacus Software). SD values were calculated based on curve fitting to n biological replicates performed in parallel.

Log P assessment (HPLC) = format: physicochemical
Text: as §1

FPR2 [2] = target: T1, FPR2 (Homo sapiens, UniProt P25090); test: BRET analysis of mini-Gsi recruitment; format: cell-based; set-up: expressed in transfected cells; host or cells: HEK293, transient transfection; conditions: HEK293, FPR2-Rluc8 + mGsi-Venus, 37 °C
T1 sequence (P25090 1-351): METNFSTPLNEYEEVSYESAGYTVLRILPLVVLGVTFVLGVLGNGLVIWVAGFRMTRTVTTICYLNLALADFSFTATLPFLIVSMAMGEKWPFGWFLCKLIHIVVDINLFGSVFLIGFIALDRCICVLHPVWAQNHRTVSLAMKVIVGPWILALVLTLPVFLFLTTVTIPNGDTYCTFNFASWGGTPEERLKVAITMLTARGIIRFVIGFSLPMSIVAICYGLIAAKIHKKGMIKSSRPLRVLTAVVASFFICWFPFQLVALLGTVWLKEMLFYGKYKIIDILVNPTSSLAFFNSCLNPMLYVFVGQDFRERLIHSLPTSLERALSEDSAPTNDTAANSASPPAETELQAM
Protocol: (§2) Since these modifications of WKYMVm altered the relative affinity of the compounds to bind to FPR2, a further series of bioluminescence resonance energy transfer (BRET) assays were conducted to determine if there was any change in efficacy, specifically the ability to recruit molecular effectors such as G‐protein or β‐arrestin.^[ [28], [29] ^] Briefly, HEK293 cells were transiently transfected with FPR2‐Rluc8 (donor) in combination with and either mGsi‐Venus or β‐arrestin 2‐YFP (acceptors) and replated after 24 h into white opaque 96‐well plates. Cells were assayed 24 h later at 37 °C, in HEPES‐buffered saline solution (HBSS) with coelenterazine H (5 μM). Cells were then stimulated with increasing concentrations of WKYMVm or analogs. Luminescence and fluorescence values were measured at 460/30 nm (FPR2) and […] (mini‐Gsi or β‐arrestin protein), respectively, and the acceptor: donor ratio was determined, normalized by subtraction of the ratio observed in untreated cells (Figure 7 ). […]
(§3) BRET analysis of β-Arrestin and mini-Gsi recruitment: HEK293 cells were grown on 6 well plates until 90-95% confluency was reached. […] Cells were then stimulated with increasing concentrations of WKYMVm and analysed using ClarioStar Plus plate reader (BMG Labtech) at 10 minutes post agonist addition. […]

FPR2 [3] = target: T2, FPR2 (Homo sapiens, UniProt P25090); test: BRET analysis of β-arrestin 2 recruitment; format: cell-based; conditions: HEK293, FPR2-Rluc8 + β-arrestin 2-YFP, 37 °C
T2 construct: expressed in transfected cells; host or cells: HEK293, transient transfection
Protocol: as §2, §3
T2 sequence (P32121 whole entry partner, one chain of several): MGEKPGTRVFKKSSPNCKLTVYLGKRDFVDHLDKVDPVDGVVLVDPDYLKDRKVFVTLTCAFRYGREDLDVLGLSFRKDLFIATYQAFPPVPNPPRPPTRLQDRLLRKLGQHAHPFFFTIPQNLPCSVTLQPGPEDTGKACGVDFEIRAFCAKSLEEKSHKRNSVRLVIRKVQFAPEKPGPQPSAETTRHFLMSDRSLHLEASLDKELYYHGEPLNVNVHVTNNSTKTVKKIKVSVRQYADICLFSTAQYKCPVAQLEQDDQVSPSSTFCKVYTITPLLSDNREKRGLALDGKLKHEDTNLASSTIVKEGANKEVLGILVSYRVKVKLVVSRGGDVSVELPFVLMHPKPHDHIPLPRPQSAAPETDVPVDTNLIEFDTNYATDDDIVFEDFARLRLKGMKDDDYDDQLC

HeLa = test: Mammalian cell activity; format: cell-based; conditions: Homo sapiens
Protocol: Bioactivities assays of Janus face Tryptophan […]
Fluorescence was recorded using a FLx
800 plate reader (BioTek) with an excitation wavelength 530–535 nm and emission wavelength of 590–610 nm using Gen5 Reader Control 2.0 Software (BioTek). EC50 values were determined using a 4-parameter non-linear logistic regression equation using GraFit 5.0 (Erithacus Software). SD values were calculated based on curve fitting to n biological replicates performed in parallel.

FPR2 [4] = target: T1, FPR2; test: Competition binding against K(5/6-FAM)-WKYMVm, flow cytometry; set-up: FLAG (N); expressed in transfected cells; conditions: for IC50: binding affinity (order of magnitude), order of magnitude
Protocol: Subsequently, mean fluorescence was measured using flow cytometry (Attune NxT). Data was expressed as a percentage of the maximum binding (i.e., no competitor) and errors were determined as a result of three independent experiments performed in duplicate (Figure 5 ).
Cell Culture and Transfection: Constructs were either transiently or stably expressed in native Human Embryonic Kidney 293 (HEK293) cells and maintained in DMEM containing 10% FCS. Transfections were performed using PEI at a ratio of DNA:PEI of 1:4 for all studies. […]
Competition Binding: Competition binding was performed using a fluorescently labelling ligand using an assay analogous to the classical radiolabelled method.[1] Briefly, human embryonic kidney 293 (HEK293) cells stably expressing human Formyl […]
and incubated for 90 min on ice in the dark to allow equilibrium binding. Subsequently, mean fluorescence was measured by flow cytometry using the Attune NxT. Data was expressed as a percentage of maximum binding (i.e. no competitor) and analysed via nonlinear regression one site model of equilibrium. IC50 values were determined using GraphPad PRISM software.

T. brucei [5] = system: T. brucei; set-up: method as in PMID 34927802; conditions: previously reported; cited from earlier work
[6] = set-up: method as in PMID 29732086; conditions: ref 6a; cited from earlier work
[7] = target: T3, formyl-peptide receptor type 2 (FPR2), on HEK293 cells (human, UniProt P25090 1-351); test: FACS; competition with K(5/6-FAM)-WKYMVm; printed as Log IC50 -7.24
T3 chain: T1 sequence (P25090 1-351)

[8] = target: T3, formyl-peptide receptor type 2 (FPR2), …; test: FACS; competition with K(5/6-FAM)-WKYMVm; printed as Log IC50 -6.29
[9] = target: T3, formyl-peptide receptor type 2 (FPR2), …; test: FACS; competition with K(5/6-FAM)-WKYMVm; printed as Log IC50 -5.80
[10] = target: T3, formyl-peptide receptor type 2 (FPR2), …; test: FACS; competition with K(5/6-FAM)-WKYMVm; printed as Log IC50 -5.33

O=C1NC(CC2CC(F)CC(F)C2)C2NC1Cc1c2[nH]c2ccccc12 (stereo not shown) [28b]
EC50 (T. brucei [1]): 11300 ± 730 nM
chromatographic logP (Log P assessment (HPLC)): 2.92

CSCC[C@H](NC(=O)[C@H](Cc1ccc(O)cc1)NC(=O)[C@H](CCCCN)NC(=O)[C@@H](N)Cc1c[nH]c2ccccc12)C(=O)N[C@H](C(=O)N[C@H](CCSC)C(N)=O)C(C)C [compound 13, Trp‐Lys‐Tyr‐Met‐Val‐D‐Met‐NH2, reference compound]
efficacy of Gi (mini-Gsi) recruitment (FPR2 [2]): most efficacious
efficacy of β-arrestin recruitment (FPR2 [3]): most efficacious

O=C1NC(CC2CCC(F)CC2)C2NC1Cc1c2[nH]c2ccccc12 (stereo not shown) [28a]
EC50 (T. brucei [1]): 10700 ± 460 nM
trypanocidal activity against T. brucei (T. brucei [1]): best compound
chromatographic logP (Log P assessment (HPLC)): 3.02
EC50 (HeLa): 105000 ± 6250 nM

CSCC[C@H](NC(=O)[C@H](C[C@H]1CC[C@@H](F)CC1)NC(=O)[C@H](CCCCN)NC(=O)[C@@H](N)Cc1c[nH]c2ccccc12)C(=O)N[C@H](C(=O)N[C@H](CCSC)C(N)=O)C(C)C [23a] (H-WK[X1]MV[dM]-NH2; N-terminus assumed)
efficacy of Gi (mini-Gsi) recruitment (FPR2 [2]): comparable efficacy
efficacy of β-arrestin recruitment (FPR2 [3]): comparable efficacy
relative binding affinity (FPR2 [4]; comparison within the peptide series): highest affinity but significantly weaker than that of the WKYMVm 13

O=C1NC(Cc2ccccc2)C2NC1Cc1c2[nH]c2ccccc12 (stereo not shown) [compound 29]
EC50 (T. brucei [5]): 52100 ± 3500 nM

CSCC[C@H](NC(=O)[C@H](Cc1ccc(F)cc1)NC(=O)[C@H](CCCCN)NC(=O)[C@@H](N)Cc1c[nH]c2ccccc12)C(=O)N[C@H](C(=O)N[C@H](CCSC)C(N)=O)C(C)C [compound 24] (H-WK[Phe(4-F)]MV[dM]-NH2)
IC50 (FPR2 [4]): ~100 nM

CSCC[C@H](NC(=O)[C@H](C[C@@H]1[C@H](F)C[C@H](F)C[C@@H]1F)NC(=O)[C@H](CCCCN)NC(=O)[C@@H](N)Cc1c[nH]c2ccccc12)C(=O)N[C@H](C(=O)N[C@H](CCSC)C(N)=O)C(C)C [23c] (H-WK[X3]MV[dM]-NH2)
IC50 (FPR2 [4]): ~1000 nM

O=CC(CC1CCNC1=O)NC(=O)C(CC1C(F)C(F)C(F)C(F)C1F)NC(=O)c1cc2ccccc2[nH]1 (stereo not shown) [compound 8]
Log P [6]: 0.69

CSCC[C@H](NC(=O)[C@H](Cc1c(F)c(F)c(F)c(F)c1F)NC(=O)[C@H](CCCCN)NC(=O)[C@@H](N)Cc1c[nH]c2ccccc12)C(=O)N[C@H](C(=O)N[C@H](CCSC)C(N)=O)C(C)C [compound 25] (H-WK[Phe(F5)]MV[dM]-NH2)
IC50 (FPR2 [4]): ~1000 nM

COC(=O)C=CC(CC1CCNC1=O)NC(=O)C(CC1C(F)C(F)C(F)C(F)C1F)NC(=O)C=Cc1ccccc1 (stereo not shown) [compound 9]
Log P [6]: 1.21

CSCC[C@H](NC(=O)[C@H](C[C@@H]1C[C@H](F)C[C@H](F)C1)NC(=O)[C@H](CCCCN)NC(=O)[C@@H](N)Cc1c[nH]c2ccccc12)C(=O)N[C@H](C(=O)N[C@H](CCSC)C(N)=O)C(C)C [23b] (H-WK[X2]MV[dM]-NH2)
IC50 (FPR2 [4]): ~100 nM

O=C1NC(CC2C(F)C(F)C(F)C(F)C2F)C2NC1Cc1c2[nH]c2ccccc12 (stereo not shown) [28d]
EC50 (T. brucei [1]): 22000 ± 2120 nM
trypanocidal activity against T. brucei (T. brucei [1]): least active compound
chromatographic logP (Log P assessment (HPLC)): 2.58

B1: W-peptide analog 24 (4-fluorophenylalanine in place of Tyr3 of WKYMVm) (peptide)
peptide: WK[Phe(4-F)]MV[dM]-NH2
modifications: N-terminus assumed
SMILES: CSCC[C@H](NC(=O)[C@H](Cc1ccc(F)cc1)NC(=O)[C@H](CCCCN)NC(=O)[C@@H](N)Cc1c[nH]c2ccccc12)C(=O)N[C@H](C(=O)N[C@H](CCSC)C(N)=O)C(C)C
notes: last residue D-methionine; also called 4-fluorophenyl-modified peptide 24; 4-fluorophenylalanine analog 24; source: synthetic peptide (microwave-assisted SPPS, preparative HPLC)
IC50 [7]: 57.5 nM

B2: W-peptide analog 25 (pentafluoroaryl phenylalanine in place of Tyr3 of WKYMVm) (peptide)
peptide: WK[Phe(F5)]MV[dM]-NH2
modifications: N-terminus assumed
SMILES: CSCC[C@H](NC(=O)[C@H](Cc1c(F)c(F)c(F)c(F)c1F)NC(=O)[C@H](CCCCN)NC(=O)[C@@H](N)Cc1c[nH]c2ccccc12)C(=O)N[C@H](C(=O)N[C@H](CCSC)C(N)=O)C(C)C
notes: last residue D-methionine; also called pentafluoroaryl motif; source: synthetic peptide (microwave-assisted SPPS, preparative HPLC)
IC50 [8]: 513 nM

B3: W-peptide analog 23c (all-cis trifluorocyclohexylalanine in place of Tyr3 of WKYMVm) (peptide)
chain: WK[all‑cis trifluorocyclohexylalanine]MV[dM]-NH2
IC50 [9]: 1580 nM

B4: W-peptide analog 23d (all-cis pentafluorocyclohexylalanine in place of Tyr3 of WKYMVm) (peptide)
chain: WK[all‑cis pentafluorocyclohexylalanine]MV[dM]-NH2
IC50 [10]: 4680 nM
